Laboratory results published in patent publication US7498327B2, “Indolylalkylamine metabolites as 5-hydroxytryptamine-6 ligands” (Wyeth, priority 2004, dated 2009).

Molecular target: T1, human cloned 5-HT6 receptors (Homo sapiens, UniProt P50406)
T1 construct: expressed in transfected cells; host or cells: HeLa cells (membrane preparation)
Assay: 5-HT6 binding affinity, [3H]-LSD displacement
Details: membranes of Hela cells expressing human cloned 5-HT6 receptors; [3H]-LSD 3.0 nM; 120 min, room temperature
Method: The affinity of test compounds for the serotonin 5-HT6 receptor is evaluated in the following manner. Cultured Hela cells expressing human cloned 5-HT6 receptors are harvested and centrifuged at low speed (1,000× g) for 10.0 min to remove the culture media. The harvested cells are suspended in half volume of fresh physiological phosphate buffered saline solution and recentrifuged at the same speed. This operation is repeated. The collected cells are then homogenized in ten volumes of 50 mM Tris.HCl (pH 7.4) and 0.5 mM EDTA. The homogenate is centrifuged at 40,000× g for 30.0 min and the precipitate is collected. The obtained pellet is resuspended in 10 volumes of Tris.HCl buffer and recentrifuged at the same speed. The final pellet is suspended in a small volume of Tris.HCl buffer and the tissue protein content is determined in aliquots of 10-25 μl volumes. […]
The bound complex caught on the filter disk is allowed to air dry and the radioactivity is measured in a Packard TopCount® equipped with six photomultiplier detectors, after the addition of 40.0 μl Microscint®-20 scintillant to each shallow well. The unifilter plate is heat-sealed and counted in a PackardTopCount® with a tritium efficiency of 31.0%.
Binding in the presence of varying concentrations of test compound is expressed as a percentage of specific binding in the absence of test compound. […]

T1 sequence (P50406 whole entry): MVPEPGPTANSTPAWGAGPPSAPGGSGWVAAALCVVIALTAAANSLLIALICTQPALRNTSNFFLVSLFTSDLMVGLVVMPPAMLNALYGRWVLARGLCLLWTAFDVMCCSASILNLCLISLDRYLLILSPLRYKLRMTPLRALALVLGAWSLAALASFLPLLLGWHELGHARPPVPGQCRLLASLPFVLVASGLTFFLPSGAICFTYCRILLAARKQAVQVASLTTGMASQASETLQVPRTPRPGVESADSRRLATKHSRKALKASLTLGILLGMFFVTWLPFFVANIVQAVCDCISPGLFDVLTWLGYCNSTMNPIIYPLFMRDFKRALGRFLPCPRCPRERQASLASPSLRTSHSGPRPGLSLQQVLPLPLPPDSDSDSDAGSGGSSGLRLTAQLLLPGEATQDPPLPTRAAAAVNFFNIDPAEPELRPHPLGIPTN

Q: `O=C(O)Cc1cn(S(=O)(=O)c2c(Cl)nc3sccn23)c2ccccc12` [Example 2, {1-[(6-Chloroimidazo[2,1-b][1,3]thiazol-5-yl)sulfonyl]-1H-indol-3-yl}acetic acid] was tested. Which Ki did it give?
A: The Ki was 248 nM.
